In US8580829B2 (Boehringer Ingelheim International GmbH, priority 2010, dated 2013):
Like-named read-outs stand apart in the source and are kept apart here.

How the values were obtained:
[1] = test system: synthesis of LTB4 in human whole blood; experiment: human whole blood LTB4 production inhibition assay; assay type: cell-based; conditions: heparinized human whole blood, calcimycin 20 μM, read-out: hWB LTB4 IC50
Procedure, shortened: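 Heparinized human whole blood was preincubated with compound for 15 min at 37° C, then stimulated with calcimycin (20 μM final, in PBS pH 7.4) for a further 30 min at 37° C. Plasma LTB4 was quantified by antibody-based homogeneous time-resolved fluorescence.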

[2] = target: T1, recombinant human FLAP protein (Homo sapiens, UniProt P20292); experiment: FLAP binding assay (Scintillation Proximity Assay, displacement of [125I]L-691,831); conditions: recombinant human FLAP membranes, [125I]L-691,831 probe; read-out: FLAP SPA IC50
T1 construct: made in house; host or cells: Sf9 insect cells (100,000 x g membrane fraction)
T1 sequence (P20292 1-161): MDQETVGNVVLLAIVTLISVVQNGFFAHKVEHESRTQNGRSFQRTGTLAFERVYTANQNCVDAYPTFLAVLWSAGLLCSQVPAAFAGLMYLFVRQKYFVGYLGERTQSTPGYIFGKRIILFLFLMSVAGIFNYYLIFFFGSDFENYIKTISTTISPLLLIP
Procedure, shortened: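 Membranes came from Sf9 insect cells expressing recombinant human FLAP, collected as the 100,000×g pellet in Tris pH 7.5/MgCl2/EDTA buffer. 5 μg membrane protein was coupled to WGA SPA beads for 1 h.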

Row | IC50 ([1]; Homo sapiens) [nM] | IC50 [2] [nM] | IC50 [1] [nM] | SMILES
1 | 59 | 1.3 |  | Nc1ncc(-c2ccc(C3(c4noc(-c5cnn(CCN6CCCC6=O)c5)n4)CCC3)cc2)cn1 [Example 216, 1-{2-[4-(3-{1-[4-(2-Amino-pyrimidin-5-yl)-phenyl]-cyclobutyl}-[1,2,4]oxadiazol-5-yl)-pyrazol-1-yl]-ethyl}-pyrrolidin-2-one]
2 | > 5000 | 180 |  | Nc1ncc(-c2ccc(C3(c4noc(Cc5ccccc5)n4)CCOCC3)cc2)cn1 [Example 150, 5-{4-[4-(5-Benzyl-1,2,4-oxadiazol-3-yl)-tetrahydro-pyran-4-yl]-phenyl}-pyrimidin-2-ylamine]
3 | 450 | 4.9 |  | CC(C)(CO)Nc1cnc(-c2nc(C3(c4ccc(-c5cnc(N)nc5)cc4)CCC3)no2)cn1 [Example 121, 2-[5-(3-{1-[4-(2-Amino-pyrimidin-5-yl)-phenyl]-cyclobutyl}-1,2,4-oxadiazol-5-yl)-pyrazin-2-ylamino]-2-methyl-propan-1-ol]
4 | 120 | 8.4 |  | COCCn1cccc(-c2nc(C3(c4ccc(-c5cnc(N)nc5)cc4)CCC3)no2)c1=O [Example 66, 3-(3-{1-[4-(2-Amino-pyrimidin-5-yl)-phenyl]-cyclobutyl}-1,2,4-oxadiazol-5-yl)-1-(2-methoxy-ethyl)-1H-pyridin-2-one]
5 | 27 | 1.2 |  | Nc1ncc(-c2ccc(C3(c4noc(-c5ccc6[nH]ncc6c5)n4)CCC3)cc2)cn1 [Example 190, 5-(4-{1-[5-(1H-Indazol-5-yl)-1,2,4-oxadiazol-3-yl]-cyclobutyl}-phenyl)-pyrimidin-2-ylamine]
6 | 600 | 3.6 |  | Cc1ccc(-c2nc(C3(c4ccc(-c5cnc(N)nc5)cc4)CCC3)no2)cc1 [Example 35, 5-{4-[1-(5p-Tolyl-1,2,4-oxadiazol-3-yl)-cyclobutyl]-phenyl}-pyrimidin-2-ylamine]
7 | 35 | 4.4 |  | CNc1ncc(-c2ccc(C3(c4noc(-c5cnn(C)c5)n4)CCC3)cc2)cn1 [Example 294, Methyl-[5-(4-{1-[5-(1-methyl-1H-pyrazol-4-yl)-[1,2,4]oxadiazol-3-yl]-cyclobutyl}-phenyl)-pyrimidin-2-yl]-amine]
8 | 110 | 2.3 |  | Nc1ncc(-c2ccc(C3(c4noc(-c5cn[nH]c5)n4)CCC3)cc2)cn1 [Example 175, 5-(4-{1-[5-(1H-Pyrazol-4-yl)-1,2,4-oxadiazol-3-yl]-cyclobutyl}-phenyl)-pyrimidin-2-ylamine]
9 | 220 | 8.8 |  | Cn1cc(-c2nc(C3(c4ccc(-c5cnc(N)c(CO)c5)cc4)CCC3)no2)cn1 [Example 274, [2-Amino-5-(4-{1-[5-(1-methyl-1H-pyrazol-4-yl)-[1,2,4]oxadiazol-3-yl]-cyclobutyl}-phenyl)-pyridin-3-yl]-methanol]
10 | 250 | 2.2 |  | Nc1ncc(-c2ccc(C3(c4noc(-c5cccnc5)n4)CCC3)cc2)cn1 [Example 143, 5-{4-[1-(5-pyridin-3-yl-1,2,4-oxadiazol-3-yl)-cyclobutyl]-phenyl}-pyrimidin-2-ylamine]
11 | 3400 | 8.4 |  | Nc1ncc(-c2ccc(C3(c4noc(-c5cnc(Cl)cn5)n4)CCC3)cc2)cn1 [Example 187, 5-(4-{1-[5-(5-chloro-pyrazin-2-yl)-1,2,4-oxadiazol-3-yl]-cyclobutyl}-phenyl)-pyrimidin-2-ylamine]
12 | 230 | 6.5 |  | Nc1ncc(-c2ccc(C3(c4noc(-c5ccc(C(=O)N6CCOCC6)nc5)n4)CCC3)cc2)cn1 [Example 30, [5-(3-{1-[4-(2-Amino-pyrimidin-5-yl)-phenyl]-cyclobutyl}-1,2,4-oxadiazol-5-yl)-pyridin-2-yl]-morpholin-4-yl-methanone]
13 |  | 3.5 | > 5000 | Nc1ncc(-c2ccc(C3(c4noc(-c5cnc(N6CCNCC6)cn5)n4)CCC3)cc2)cn1 [Example 124, 5-(4-{1-[5-(3,4,5,6-Tetrahydro-1H-1,2′-bipyrazinyl-5′-yl)-1,2,4-oxadiazol-3-yl]-cyclobutyl}-phenyl)-pyrimidin-2-ylamine]
14 | 160 | 6.5 |  | Nc1ncc(-c2ccc(C3(c4noc(-c5csc(N6CCNCC6)n5)n4)CCC3)cc2)cn1 [Example 266, 5-(4-{1-[5-(2-Piperazin-1-yl-thiazol-4-yl)-[1,2,4]oxadiazol-3-yl]-cyclobutyl}-phenyl)-pyrimidin-2-ylamine]
15 | 140 | 3.5 |  | COCCN(C)C(=O)Cn1cc(-c2nc(C3(c4ccc(-c5cnc(N)nc5)cc4)CCC3)no2)cn1 [Example 241, 2-[4-(3-{1-[4-(2-Amino-pyrimidin-5-yl)-phenyl]-cyclobutyl}-[1,2,4]oxadiazol-5-yl)-pyrazol-1-yl]-N-(2-methoxy-ethyl)-N-methyl-acetamide]
16 | 3300 | 46 |  | Cc1cc(-c2nc(C3(c4ccc(-c5cnc(N)nc5)cc4)CCOCC3)no2)n(C)n1 [Example 148, 5-(4-{4-[5-(2,5-Dimethyl-2H-pyrazol-3-yl)-1,2,4-oxadiazol-3-yl]-tetrahydro-pyran-4-yl}-phenyl)-pyrimidin-2-ylamine]
17 | 290 | 12 |  | Nc1ncc(-c2ccc(C3(c4noc(-c5cccn(CCO)c5=O)n4)CCC3)cc2)cn1 [Example 67, 3-(3-{1-[4-(2-Amino-pyrimidin-5-yl)-phenyl]-cyclobutyl}-1,2,4-oxadiazol-5-yl)-1-(2-hydroxy-ethyl)-1H-pyridin-2-one]
18 | 65 | 10 |  | CN(C)C(=O)Cn1cc(-c2nc(C3(c4ccc(-c5cnc(N)cn5)cc4)CCC3)no2)cn1 [Example 304, 2-[4-(3-{1-[4-(5-Amino-pyrazin-2-yl)-phenyl]-cyclobutyl}-[1,2,4]oxadiazol-5-yl)-pyrazol-1-yl]-N,N-dimethyl-acetamide]
19 | 460 | 11 |  | CCNc1nc(C2(c3ccc(-c4cnc(N)nc4)cc3)CCC2)no1 [Example 24, 5-{4-[1-(5-Ethylamino-1,2,4-oxadiazol-3-yl)-cyclobutyl]-phenyl}-pyrimidin-2-ylamine]
20 | 2100 | 4.7 |  | Nc1ncc(-c2ccc(C3(c4noc(-c5c[nH]nn5)n4)CCC3)cc2)cn1 [Example 40, 5-(4-{1-[5-(1H-1,2,3-Triazol-4-yl)-1,2,4-oxadiazol-3-yl]-cyclobutyl}-phenyl)-pyrimidin-2-ylamine]
21 | 170 | 7.7 |  | Nc1ncc(-c2ccc(C3(c4noc(-c5cnn(CC(=O)N6CCCC6)c5)n4)CCC3)cc2)cn1 [Example 137, 2-[4-(3-{1-[4-(2-Amino-pyrimidin-5-yl)-phenyl]-cyclobutyl}-1,2,4-oxadiazol-5-yl)-pyrazol-1-yl]-1-pyrrolidin-1-yl-ethanone]
22 | > 5000 | 78 |  | Nc1ncc(-c2ccc(C3(c4noc(-c5ccccn5)n4)CCOCC3)cc2)cn1 [Example 145, 5-{4-[4-(5-pyridin-2-yl-1,2,4-oxadiazol-3-yl)-tetrahydro-pyran-4-yl]-phenyl}-pyrimidin-2-ylamine]
23 | 2000 | 76 |  | Cn1cc(-c2nc(C3(c4ccc(-c5ccc(N)c(C#N)c5)cc4)CCC3)no2)cn1 [Example 260]
24 | 160 | 3.1 |  | Cn1ccc(-c2nc(C3(c4ccc(-c5cnc(N)nc5)cc4)CCC3)no2)cc1=O [Example 21, 4-(3-{1-[4-(2-Amino-pyrimidin-5-yl)-phenyl]-cyclobutyl}-1,2,4-oxadiazol-5-yl)-1-methyl-1H-pyridin-2-one]
25 | 63 | 1.9 |  | Nc1ccc(-c2nc(C3(c4ccc(-c5cnc(N)nc5)cc4)CCC3)no2)cn1 [Example 20, 5-(4-{1-[5-(6-Amino-pyridin-3-yl)-1,2,4-oxadiazol-3-yl]-cyclobutyl}-phenyl)-pyrimidin-2-ylamine]
26 | 52 | 2.8 |  | CC(C)NC(=O)Cn1cc(-c2nc(C3(c4ccc(-c5cnc(N)nc5)cc4)CCC3)no2)cn1 [Example 208, 2-[4-(3-{1-[4-(2-Amino-pyrimidin-5-yl)-phenyl]-cyclobutyl}-[1,2,4]oxadiazol-5-yl)-pyrazol-1-yl]-N-isopropyl-acetamide]
27 | 160 | 1.2 |  | Nc1ncc(-c2ccc(C3(c4noc(-c5cnn(CC(=O)NC6CCOCC6)c5)n4)CCC3)cc2)cn1 [Example 218, 2-[4-(3-{1-[4-(2-Amino-pyrimidin-5-yl)-phenyl]-cyclobutyl}-[1,2,4]oxadiazol-5-yl)-pyrazol-1-yl]-N-(tetrahydro-pyran-4-yl)-acetamide]
28 | 110 | 0.92 |  | CS(=O)(=O)C1CCN(c2ccc(-c3nc(C4(c5ccc(-c6cnc(N)nc6)cc5)CCC4)no3)cn2)C1 (stereo not drawn) [Example 110, 5-[4-(1-{5-[6-(3-Methanesulfonyl-pyrrolidin-1-yl)-pyridin-3-yl]-1,2,4-oxadiazol-3-yl}-cyclobutyl)-phenyl]-pyrimidin-2-ylamine]
29 | 4700 | 190 |  | CC(C)(O)Cn1cc(-c2nc(C3(c4ccc(-c5cnc(N)nc5)cc4)CC3)no2)cn1 [Example 254, 1-[4-(3-{1-[4-(2-Amino-pyrimidin-5-yl)-phenyl]-cyclopropyl}-[1,2,4]oxadiazol-5-yl)-pyrazol-1-yl]-2-methyl-propan-2-ol]
30 | 95 | 2.6 |  | CC(C)N(C)C(=O)Cn1cc(-c2nc(C3(c4ccc(-c5cnc(N)nc5)cc4)CCC3)no2)cn1 [Example 139, 2-[4-(3-{1-[4-(2-Amino-pyrimidin-5-yl)-phenyl]-cyclobutyl}-1,2,4-oxadiazol-5-yl)-pyrazol-1-yl]-N-isopropyl-N-methyl-acetamide]
